Data on ten compounds can be found in US11059832B2, “HPK1 inhibitors and methods of using same” (University Health Network, priority 2015, dated 2021).

Experiment [1] addresses T1, LCK (Homo sapiens, UniProt P06239).
T1 construct: purchased Invitrogen P3043
Nature of the experiment: LCK inhibition, FRET based Z'-LYTE Kinase Assay. Type of experiment: biochemical. The note with it: 25 nM LCK, 180 μM ATP; read-out: IC50 Range Lck. Here is the method: (§1) FLT3 and LCK compound inhibition were determined using FRET based Z′-LYTE Kinase Assay Kit with Tyrosine 2 peptide as the substrate (Invitrogen cat #PV3191). […] The % inhibition values were determined according to the manufacturer's directions and IC50 values were obtained using a non-linear 4 point logistic curve fit (XLfit4, IDBS).

Experiment [2] relates to SLP-76 serine 376 phosphorylation in α-CD3 stimulated Jurkat E6.1 cells. In words: In vitro phosphorylation assay, SLP-76 Ser376 (immunoblot). The note with it: Homo sapiens, 4 h pretreatment, substantive = >75% inhibition as estimated by immunoblot analysis, read-out: SLP76 S376 Phosphorylation Onset-Substantive* Inhibition. Type of experiment: cell-based. Here is the method:
(§2) Jurkat E6.1 cells were obtained from American Type Culture Collection (ATCC, Manassas, Va.), and maintained according to the supplier's instructions. Cells were washed three times and starved in RPMI 1640 medium supplemented with 0.5% fetal calf serum for 18 h at 37° C. Serum starved cells were pretreated with the indicated concentration of inhibitor for 4 hours before stimulation with 10 μg/ml α-CD3 antibody (BioLegend, Inc., San Diego, Calif.) for 10 min at 37° C. The cells were washed once in phosphate-buffered saline (pH 7.4) containing 10 mm sodium pyrophosphate, 10 mm sodium fluoride, 10 mm EDTA, and 1 mm sodium orthovanadate. Protein lysates were prepared using ice-cold radioimmunoprecipitation assay (RIPA) lysis buffer. A total of 100 μg of cell lysate was loaded onto Bis-Tris gels (Life Technologies, Carlsbad, Calif.) with full-range molecular weight marker as a size reference, and resolved by SDS-PAGE electrophoresis. Proteins were transferred to PVDF membrane (Millipore, Billerica, Mass.), blocked and probed with antibodies for phospho-SLP-76 (Ser376) (rabbit polyclonal #13177; Cell Signaling Technology Inc., Danvers, Mass.), SLP-76 (rabbit polyclonal #4958; Cell Signaling Technology Inc., Danvers, Mass.), phospho-ERK (mouse monoclonal sc-7383; Santa Cruz Biotechnology Inc., Santa Cruz, Calif.) and ERK1/2 (rabbit polyclonal 06-182; Millipore, Billerica, Mass.). Secondary antibodies were diluted 1 in 15,000 and incubated for 1 h at rt. Protein bands were visualized and quantified using Odyssey near infrared imager (LI-COR, Lincoln, Nebr.).
(§3) Table 2 below lists effects of representative compounds of the present invention against SLP-76 serine 376 phosphorylation and ERK1/2 T202/Y204 phosphorylation in α-CD3 stimulated Jurkat E6.1 cells.

Experiment [3] deals with T2, FLT3 (Homo sapiens, UniProt P36888).
T2 construct: purchased Invitrogen PV3182
T2 sequence (P36888 27-993): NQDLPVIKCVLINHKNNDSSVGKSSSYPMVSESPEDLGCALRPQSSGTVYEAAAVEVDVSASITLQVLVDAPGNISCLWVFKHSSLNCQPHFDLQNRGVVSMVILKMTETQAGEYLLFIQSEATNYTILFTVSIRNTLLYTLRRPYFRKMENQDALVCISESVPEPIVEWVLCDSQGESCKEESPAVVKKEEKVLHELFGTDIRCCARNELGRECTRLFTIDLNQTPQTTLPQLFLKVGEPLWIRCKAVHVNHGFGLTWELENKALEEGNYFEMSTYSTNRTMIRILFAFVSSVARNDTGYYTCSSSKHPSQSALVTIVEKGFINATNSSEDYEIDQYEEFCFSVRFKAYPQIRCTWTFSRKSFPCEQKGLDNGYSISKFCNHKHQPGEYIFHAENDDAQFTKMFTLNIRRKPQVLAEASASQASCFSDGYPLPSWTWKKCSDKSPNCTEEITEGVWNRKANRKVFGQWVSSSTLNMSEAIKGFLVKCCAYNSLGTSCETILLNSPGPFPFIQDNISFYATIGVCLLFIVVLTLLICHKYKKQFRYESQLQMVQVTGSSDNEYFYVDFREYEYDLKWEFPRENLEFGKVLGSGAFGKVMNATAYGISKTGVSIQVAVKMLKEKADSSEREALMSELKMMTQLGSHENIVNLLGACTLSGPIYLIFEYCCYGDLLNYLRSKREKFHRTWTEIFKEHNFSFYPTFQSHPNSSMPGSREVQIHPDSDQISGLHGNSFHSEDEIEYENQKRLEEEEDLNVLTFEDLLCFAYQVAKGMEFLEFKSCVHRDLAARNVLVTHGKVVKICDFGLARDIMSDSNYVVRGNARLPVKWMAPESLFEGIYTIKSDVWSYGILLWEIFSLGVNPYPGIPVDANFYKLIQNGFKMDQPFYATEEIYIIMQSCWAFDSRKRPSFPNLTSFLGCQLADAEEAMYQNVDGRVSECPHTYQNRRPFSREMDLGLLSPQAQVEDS
In words: FLT3 inhibition, FRET based Z'-LYTE Kinase Assay. Type of experiment: biochemical. The following applies: 1 nM FLT3, 940 μM ATP; read-out: IC50 Range Flt3. The method, then:
as §1

Experiment [4] has as its target T3, human HPK1 (MAP4K1) (Homo sapiens, UniProt Q92918).
T3 construct: human HPK1 (aa 1-346); purchased Invitrogen PV6355
T3 sequence (Q92918 1-346): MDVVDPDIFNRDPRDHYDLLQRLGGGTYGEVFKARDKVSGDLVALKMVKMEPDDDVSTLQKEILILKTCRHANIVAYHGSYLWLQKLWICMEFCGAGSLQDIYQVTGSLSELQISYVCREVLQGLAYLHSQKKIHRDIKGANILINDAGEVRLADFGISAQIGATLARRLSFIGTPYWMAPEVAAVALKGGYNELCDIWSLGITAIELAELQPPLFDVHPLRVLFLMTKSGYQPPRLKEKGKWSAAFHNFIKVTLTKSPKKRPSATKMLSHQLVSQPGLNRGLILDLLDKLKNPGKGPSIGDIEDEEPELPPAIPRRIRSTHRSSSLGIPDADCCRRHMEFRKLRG
In words: HPK1 inhibition assay (indirect ELISA). Type of experiment: biochemical. The note with it: GST-HPK1 0.6 nM, 12 μM ATP; read-out: IC50 Range HPK1. The method in brief: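 GST-tagged human HPK1 (aa 1-346, 0.6 nM) phosphorylated MBP-coated wells with 12 μM ATP in MOPS pH 7.2/Mg2+ buffer for 30 min after 15-min compound preincubation; phospho-Thr detected by antibody ELISA with TMB, 450 nm. Tested at 10 μM or 10-point titration (typically 50-0.1 μM); IC50 by 4-parameter logistic fit.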
(In general: ELISA stands for enzyme-linked immunosorbent assay.)

For experiment [5], the system named is ERK1/2 T202/Y204 phosphorylation in α-CD3 stimulated Jurkat E6.1 cells. Nature of the experiment: In vitro phosphorylation assay, ERK1/2 T202/Y204 (immunoblot). Type of experiment: cell-based. The following applies: Homo sapiens, 4 h pretreatment, read-out: ERK1/2 T202/Y204 Phosphorylation Onset Inhibition. The method, then:
as §2, §3
Background: Immunoblotting shows a protein as a band on a membrane.

The structures appear in SMILES notation.

T1 sequence (P06239 whole entry, species assumed): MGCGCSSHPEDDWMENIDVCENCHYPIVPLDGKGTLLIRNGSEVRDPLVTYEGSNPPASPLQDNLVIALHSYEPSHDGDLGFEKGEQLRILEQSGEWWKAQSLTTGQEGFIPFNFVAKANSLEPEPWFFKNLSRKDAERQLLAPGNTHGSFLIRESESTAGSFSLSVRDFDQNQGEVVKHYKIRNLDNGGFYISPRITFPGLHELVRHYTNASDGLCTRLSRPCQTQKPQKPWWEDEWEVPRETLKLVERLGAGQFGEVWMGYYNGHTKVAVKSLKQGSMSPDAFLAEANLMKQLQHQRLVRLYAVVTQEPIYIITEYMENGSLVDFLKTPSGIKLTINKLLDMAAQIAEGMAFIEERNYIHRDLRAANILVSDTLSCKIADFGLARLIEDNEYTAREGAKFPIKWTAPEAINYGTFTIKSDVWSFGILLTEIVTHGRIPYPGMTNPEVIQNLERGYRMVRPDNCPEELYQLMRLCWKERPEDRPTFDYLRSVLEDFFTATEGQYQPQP

Regarding `CN1CCN(c2ccc3nc(-c4c(N)c5sccc5[nH]c4=O)[nH]c3c2)CC1` [Example A30, 7-amino-6-(6-(4-methylpiperazin-1-yl)-1H-benzo[d]imidazol-2-yl)thieno[3,2-b]pyridin-5(4H)-one], the IC50 in experiment [1], in experiment [3] and in experiment [4] was at most 0.05 µM in each case. Moreover, the IC75 in experiment [2] is 0.3 to 1 µM. Besides, in experiment [5], the minimal effective concentration was above 3 µM.
In the case of `CN1CCN(c2ccc3nc(-c4c(N)c5c(N6CCNCC6)csc5[nH]c4=O)[nH]c3c2)CC1` [Example A21, 4-amino-5-(6-(4-methylpiperazin-1-yl)-1H-benzo[d]imidazol-2-yl)-3-(piperazin-1-yl)thieno[2,3-b]pyridin-6(7H)-one], the figures for the IC50 in experiment [1], in experiment [3] and in experiment [4] were above 0.5 µM, 0.05 to 0.5 µM and at most 0.05 µM, respectively. In addition, the IC75 in experiment [2] is above 3 µM. Further, the minimal effective concentration in experiment [5] is above 3 µM.
As to `CN1CCC(Nc2c(-c3nc4ccc(N5CCOCC5)cc4[nH]3)c(=O)[nH]c3sccc23)CC1` [Example A18, 4-((1-methylpiperidin-4-yl)amino)-5-(6-morpholino-1H-benzo[d]imidazol-2-yl)thieno[2,3-b]pyridin-6(7H)-one], the IC50 (in general, the concentration that inhibits the measured activity by half) was 0.05 to 0.5 µM in experiment [1], at most 0.05 µM in experiment [3] and at most 0.05 µM in experiment [4]. For the same compound, the IC75 in experiment [2] was 0.3 to 1 µM. The minimal effective concentration in experiment [5] was above 3 µM.
With `CN1CCN(c2ccc3nc(-c4c(N[C@H]5CCC[C@H]5O)c5ccsc5[nH]c4=O)[nH]c3c2)CC1` [Example A58, 4-(((1S,2R)-2-hydroxy-cyclopentyl)amino)-5-(6-(4-methylpiperazin-1-yl)-1H-benzo[d]imidazol-2-yl)-thieno[2,3-b]pyridin-6(7H)-one], the IC50 is 0.05 to 0.5 µM in experiment [1], at most 0.05 µM in experiment [3] and at most 0.05 µM in experiment [4]. In addition, in experiment [2], the IC75 was 0.1 to 0.3 µM. In addition, in experiment [5], the minimal effective concentration was above 3 µM.
For the compound `CN1CCN(c2ccc3nc(-c4c(N)c5cscc5[nH]c4=O)[nH]c3c2)CC1` [Example A23, 4-amino-3-(6-(4-methylpiperazin-1-yl)-1H-benzo[d]imidazol-2-yl)thieno[3,4-b]pyridin-2(1H)-one], the IC50 in experiment [1], in experiment [3] and in experiment [4] was at most 0.05 µM in each case. The IC75 in experiment [2] is 0.3 to 1 µM. Besides, the minimal effective concentration in experiment [5] is above 3 µM.
As for `O=c1[nH]c2ccsc2c(NC2CCNCC2)c1-c1nc2ccc(N3CCOCC3)cc2[nH]1` [Example A43, 6-(6-morpholino-1H-benzo[d]imidazol-2-yl)-7-(piperidin-4-ylamino)thieno[3,2-b]pyridin-5(4H)-one], the figures for the IC50 in experiment [1], in experiment [3] and in experiment [4] were 0.05 to 0.5 µM, at most 0.05 µM and at most 0.05 µM, respectively. Further, the IC75 in experiment [2] was 0.1 to 0.3 µM. In experiment [5], the minimal effective concentration was above 3 µM.
With `CN1CCN(c2ccc3nc(-c4c(NC5CCCC5)c5sccc5[nH]c4=O)[nH]c3c2)CC1` [Example A34, 7-(cyclopentylamino)-6-(6-(4-methylpiperazin-1-yl)-1H-benzo[d]imidazol-2-yl)thieno[3,2-b]pyridin-5(4H)-one], the IC50 in experiment [1], in experiment [3] and in experiment [4] was at most 0.05 µM in each case. For the same compound, the IC75 in experiment [2] is 1 to 3 µM. Further, the minimal effective concentration in experiment [5] turned out to be 3 µM.
`CN1CCN(c2ccc3nc(-c4c(N[C@H]5CCCC[C@H]5O)c5ccsc5[nH]c4=O)[nH]c3c2)CC1` [Example A57, 4-(((1S,2R)-2-hydroxy-cyclohexyl)amino)-5-(6-(4-methylpiperazin-1-yl)-1H-benzo[d]imidazol-2-yl)thieno-[2,3-b]pyridin-6(7H)-one]: the IC50 in experiment [1] was 0.05 to 0.5 µM; in experiment [3], at most 0.05 µM; in experiment [4], at most 0.05 µM. For the same compound, the IC75 in experiment [2] is 0.3 to 1 µM. Moreover, the minimal effective concentration in experiment [5] was above 3 µM.
Take `CN1CCN(c2ccc3nc(-c4c(N[C@H]5CC[C@H](O)CC5)c5sccc5[nH]c4=O)[nH]c3c2)CC1` [Example A37, 7-(((1r,4r)-4-hydroxycyclohexyl)amino)-6-(6-(4-methylpiperazin-1-yl)-1H-benzo[d]imidazol-2-yl)thieno[3,2-b]pyridin-5(4H)-one]: the IC50 in experiment [1], in experiment [3] and in experiment [4] was at most 0.05 µM each time. The IC75 in experiment [2] is 0.1 to 0.3 µM. The minimal effective concentration in experiment [5] fell in the range of 1 to 3 µM.
Regarding `CN1CCN(c2ccc3nc(-c4c(N[C@@H]5CCOC5)c5ccsc5[nH]c4=O)[nH]c3c2)CC1` [Example A10, (R)-5-(6-(4-methylpiperazin-1-yl)-1H-benzo[d]imidazol-2-yl)-4-((tetrahydrofuran-3-yl)amino)thieno[2,3-b]pyridin-6(7H)-one], the IC50 is 0.05 to 0.5 µM in experiment [1], at most 0.05 µM in experiment [3] and at most 0.05 µM in experiment [4]. For the same compound, the IC75 in experiment [2] is 1 to 3 µM. Besides, the minimal effective concentration in experiment [5] was above 3 µM.
